Test results: patent publication US20070197538A1, “Anti-vascular and anti-proliferation methods, therapies, and combinations employing specific tyrosine kinase inhibitors” (priority 2004, published 2007)
Counter-ions that a name gives are not always drawn. Each block holds one compound with its values, some of them ahead of it.

Key:
[1] = test system: accelerated phase CML; details: at 24 months; cited from earlier work
[2] = test system: blastic phase chronic myelogenous leukemia (CML); details: two trials, total of 304 patients; cited from earlier work
[3] = test system: Mouse endothelial cells from pancreas; assay: sensitivity of pancreas endothelial cells to Taxotere cytotoxicity; format: cell-based; details: with Taxotere; for sensitivity of endothelial cells to cytotoxicity mediated by Taxotere: cells at 33° C.
Protocol: Mouse endothelial cells from pancreas are maintained in culture at a temperature 33° C. where they are actively dividing.

[4] = test system: L3.6 pL pancreatic tumor; assay: orthotopic human pancreatic cancer L3.6 pL in nude mice; format: in vivo; details: combination with Taxotere; for survival rate: 4-6 weeks; for effect of the combination in cancer refractory to chemotherapy: tumor cells resistant to Taxotere (MDR cells)
Protocol: A pancreatic tumor which is shown to upregulate expression of PDGF AA, BB, A/B at metastatic sites is used for the in vivo studies. Other tumor systems that are known to upregulate expression of PDGF may also be used such as ovarian cancer, prostate cancer, bone metastasis, or breast cancer bone metastasis.
Tumor cells L3.6 pL derived from pancreatic cancer are injected into the pancreas of nude mice. The tumors are grown into detectable lesions.
Two days later, the mice are killed and the organs with and without tumors harvested, fixed, and immunostained to evaluate expression of PDGF AA, BB, A/B, PDGF-R (α,β) and status of phosphorylation of PDGF-R (α,β) on tumor cells and organ-specific endothelial cells.
The surviving mice are then killed and the size of tumor and metastasis is measured. Fixation of the tissues and staining of the tumor cells are performed. Endothelial cells are examined for division (PCNA), apoptosis (TUNEL), CD31 (endothelial cells). Expression of PDGF AA, BB, A/B, and phosphorylation of PDGF-Rα/β are further studied in these endothelial cells.

[5] = test system: MV4;11 cells; assay: intravenous MV4;11 leukemia model in NOD-SCID mice; format: in vivo; details: for large infiltrating cells with mitotic figures in bone marrow: H&E-stained sections; for large infiltrating cells with mitotic figures in bone marrow / CD45 positive cells in bone marrow: oral 50-200 mg/kg; for CD45 positive cells in bone marrow: flow cytometry; for survival: oral, 50-200 mg/kg, once daily or 3 times per week
Protocol: In a subset of animals, bone marrow cell suspensions are prepared by flushing mouse femurs with cold sterile PBS, at experimental timepoints (within 90 days of implantation).

[6] = test system: RS4-11 cells (FLT3-wild type); assay: RS4-11 cell growth, luminescence assay at 72 hours; format: cell-based, human; details: with or without 100 ng/mL FLT3 ligand, FIGS. 5 and 6
[7] = test system: AML193 cells (wild type FLT3); assay: AML193 cell growth, luminescence assay at 72 hours; details: with or without 100 ng/mL FLT3 ligand, GN963 at concentrations used (30 μM), FIGS. 3 and 4
[8] = target: FYN (Homo sapiens, UniProt P06241); details: literature; cited from earlier work
FYN, sequence (P06241 whole entry, species assumed): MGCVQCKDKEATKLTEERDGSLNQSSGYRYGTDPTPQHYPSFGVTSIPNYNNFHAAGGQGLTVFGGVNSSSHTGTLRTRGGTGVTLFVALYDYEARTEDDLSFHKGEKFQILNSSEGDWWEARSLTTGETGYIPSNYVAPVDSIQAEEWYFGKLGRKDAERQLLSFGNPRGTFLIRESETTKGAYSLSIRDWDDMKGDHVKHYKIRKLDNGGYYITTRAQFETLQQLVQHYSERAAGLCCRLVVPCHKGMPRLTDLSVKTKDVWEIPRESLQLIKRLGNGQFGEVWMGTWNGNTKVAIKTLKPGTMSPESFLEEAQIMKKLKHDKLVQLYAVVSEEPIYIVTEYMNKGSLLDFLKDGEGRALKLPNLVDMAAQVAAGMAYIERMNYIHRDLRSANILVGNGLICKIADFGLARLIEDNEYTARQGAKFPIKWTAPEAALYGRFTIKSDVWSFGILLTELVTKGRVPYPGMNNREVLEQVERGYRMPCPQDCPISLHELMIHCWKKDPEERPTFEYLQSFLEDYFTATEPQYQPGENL

[9] = target: T1, Lck (Homo sapiens, UniProt P06239); details: literature; cited from earlier work
T1 construct: host or cells: baculovirus system
T1 sequence (P06239 whole entry): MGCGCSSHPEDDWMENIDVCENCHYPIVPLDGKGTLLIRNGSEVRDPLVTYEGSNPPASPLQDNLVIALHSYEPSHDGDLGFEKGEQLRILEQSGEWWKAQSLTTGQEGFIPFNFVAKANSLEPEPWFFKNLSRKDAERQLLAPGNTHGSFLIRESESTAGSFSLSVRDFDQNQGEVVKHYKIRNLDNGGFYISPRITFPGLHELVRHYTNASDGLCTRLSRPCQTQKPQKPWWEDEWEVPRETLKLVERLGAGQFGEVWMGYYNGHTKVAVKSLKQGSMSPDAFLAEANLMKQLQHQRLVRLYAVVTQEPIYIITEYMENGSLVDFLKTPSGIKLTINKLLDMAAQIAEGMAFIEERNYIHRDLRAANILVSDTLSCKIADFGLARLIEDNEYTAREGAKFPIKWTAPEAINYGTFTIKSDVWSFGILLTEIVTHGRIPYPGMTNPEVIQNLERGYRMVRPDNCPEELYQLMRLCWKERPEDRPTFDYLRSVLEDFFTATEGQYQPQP

Structure (SMILES): CC(C)Oc1ccc2nc(Nc3ccccc3)cnc2c1.Cl
melting point: 205 to 210 °C (dec.)

Structure (SMILES): Cc1ccc(NC(=O)c2ccc(CN3CCN(C)CC3)cc2)cc1Nc1nccc(-c2cccnc2)n1 [Gleevec, imatinib mesylate]
incidence of disease progression [1]: 50%
estimated 1-year survival [2]: under 35%
major cytogenetic response rate [2]: 16%

Structure (SMILES): c1ccc(Nc2cnc3cc(O[C@@H]4CCOC4)ccc3n2)cc1 [Example 5, Phenyl-[6-(tetrahydrofuran-3-(R)-yl-oxy)quinoxalin-2-yl]amine]
melting point: 173 to 175 °C

Structure (SMILES): Oc1ccc2nc(Nc3ccccc3)cnc2c1 [Example 4, 2-Anilino-6-quinoxalinol]
melting point: 211 to 213 °C

Structure (SMILES): COc1cc2ncc(OC3CCCCC3)nc2cc1OC1CCCCC1 [Example 6, 2,7-Bis-cyclohexyloxy-6-methoxy-quinoxaline]
melting point: 75 to 78 °C

Structure (SMILES): COc1cc2ncc(N[C@@H]3C[C@@H]4C[C@H]3C[C@H]4O)nc2cc1OC [GN804, (1S,2R,4S,5R)-5-(6,7-Dimethoxyquinoxalin-2-ylamino)-Bicyclo[2.2.1]heptan-2-ol]
resistance of organ-specific endothelial cells to Taxotere increased by pancreatic tumor-conditioned medium [3]: reversal of this increased resistance
sensitivity of endothelial cells to cytotoxicity mediated by Taxotere [3]: increases sensitivity of endothelial cells to cytotoxicity mediated by Taxotere
survival rate [4]: higher survival rate
effect of the combination in cancer refractory to chemotherapy [4]: synergistic effect
large infiltrating cells with mitotic figures in bone marrow [5]: reduced numbers of large infiltrating cells with mitotic figures
CD45 positive cells in bone marrow [5]: reduced numbers of CD45 positive cells
survival [5]: prolonged survival

Structure (SMILES): COc1cc2ncc(CNC3CCCCC3)nc2cc1OC (as salt: HCl) [Example 7, Cyclohexyl-(6,7-dimethoxyquinoxalin-2-ylmethyl)-amine]
melting point: 185 to 190 °C (dec.)

Structure (SMILES): CN[C@@H]1C[C@H]2O[C@@](C)([C@@H]1OC)n1c3ccccc3c3c4c(c5c6ccccc6n2c5c31)C(=O)NC4 [staurosporine, reference compound]
effect on RS4-11 cell growth [6]: inhibits RS4-11 cell growth
effect on AML193 cell growth [7]: inhibits AML193 cell growth

Structure (SMILES): COc1cc2ncc(N[C@@H]3CC[C@@H](O)[C@H](C)C3)nc2cc1OC (stereo in doubt) [GN271, (1R,2R,4R)-4-(6,7-dimethoxy-quinoxalin-2-ylamino)-2-methyl-cyclohexanol]
resistance of organ-specific endothelial cells to Taxotere increased by pancreatic tumor-conditioned medium [3]: reversal of this increased resistance
sensitivity of endothelial cells to cytotoxicity mediated by Taxotere [3]: increases sensitivity of endothelial cells to cytotoxicity mediated by Taxotere
survival rate [4]: higher survival rate
effect of the combination in cancer refractory to chemotherapy [4]: synergistic effect
large infiltrating cells with mitotic figures in bone marrow [5]: reduced numbers of large infiltrating cells with mitotic figures
CD45 positive cells in bone marrow [5]: reduced numbers of CD45 positive cells
survival [5]: prolonged survival

Structure (SMILES): Cc1ccc(-c2nn(C(C)(C)C)c3ncnc(N)c23)cc1 [PP1]
FYN inhibitory potency [8]: low nanomolar potency
LCK inhibitory potency [9]: low nanomolar potency

More lines, now with the values ahead:

melting point: 194 to 196 °C
Structure (SMILES): COc1cc2ncc(NC3CCCCC3)nc2cc1N1CCOCC1 [Example 10, Cyclohexyl-(6-methoxy-7-morpholin-4-yl-quinoxalin-2-yl)-amine]

melting point: 184 to 186 °C
Structure (SMILES): COc1cc2ncc(N[C@@H]3C[C@H]4CC[C@@H]3C4)nc2cc1OC [Example 25, (1R,2R,4S)-(+)-Bicyclo[2.2.1]hept-2-yl-(6,7-dimethoxyquinoxalin-2-yl)-amine]

melting point: 170 to 173.5 °C
Structure (SMILES): COc1cc2cc(NCC(C)(C)CO)cnc2cc1OC [Example 9, 3-(6,7-Dimethoxyquinolin-3-yl-amino)-2,2-dimethyl-propan-1-ol]

melting point: 152 to 155 °C
Structure (SMILES): COc1cc2ncc(OC3CCC(OC(=O)N(C)C)CC3)nc2cc1OC (centres unmarked) [Example 19, Dimethyl-carbamic acid 4-(6,7-dimethoxyquinoxalin-2-yloxy)-cyclohexyl ester]

melting point: 176 to 177 °C
Structure (SMILES): COc1cc2ncc(N[C@H]3CC[C@H](OC(C)=O)CC3)nc2cc1OC [Example 21, Acetic acid trans-4-(6,7-dimethoxyquinoxalin-2-ylamino)-cyclohexyl ester]

melting point: 85 to 88 °C
Structure (SMILES): COc1cc2ncc(OC3CC4CC3C(O)C4O)nc2cc1OC (centres unmarked) [Example 17, 5-(6,7-Dimethoxyquinoxalin-2-yloxy)-bicyclo [2.2.1]heptane-2,3-diol]
